# Target: T1, human PDE5 (Homo sapiens, UniProt O76074)
# T1 construct: from tissue; host or cells: platelets from fresh blood of human donors (lysate, 10,000 g supernatant)
# Test: Inhibition of the type 5 phosphodiesterase (PDE5) activity, modified SPA test with platelet lysate
# Format: biochemical
# Conditions: PDE5 from human platelet lysate, 0.5 μM cGMP
# How it was run: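 SPA-based cGMP hydrolysis, [3H]cGMP tracer in 0.5 μM cGMP, by sonicated human platelet lysate; motapizone (1 μM) and a PDE2 inhibitor (10 nM) block other PDEs. Reaction 15 min at 37 °C after 5 min preincubation, quenched with beads containing IBMX. IC50 from concentration-effect curves.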
row,IC50 [nM],SMILES
1,24,"COCCOc1cc(OC)ccc1-c1ncnc2c(C(=O)NC3CCN(C(C)=O)CC3)c[nH]c12 [Example 158, 4-[4-Methoxy-2-(2-methoxy-ethoxy)-phenyl]-5H-pyrrolo[3,2-d]pyrimidine-7-carboxylic acid (1-acetyl-piperidin-4-yl)-amide]"
2,6.03,"COCCOc1cc(OC)ccc1-c1ncnc2c(C(=O)NC3CCN(C(=O)C4CC4)CC3)c[nH]c12 [Example 159, 4-[4-Methoxy-2-(2-methoxy-ethoxy)-phenyl]-5H-pyrrolo[3,2-d]pyrimidine-7-carboxylic acid (1-cyclopropanecarbonyl-piperidin-4-yl)-amide]"
3,23.4,"COCCOc1cc(OC)ccc1-c1ncnc2c(C(=O)NC3CCN(C(=O)COC)CC3)c[nH]c12 [Example 160, 4-[4-Methoxy-2-(2-methoxy-ethoxy)-phenyl]-5H-pyrrolo[3,2-d]pyrimidine-7-carboxylic acid [1-(2-methoxy-acetyl)-piperidin-4-yl]-amide]"
4,5.25,"COCCOc1ccc2c(c1-c1ncnc3c(C(=O)N[C@H]4CC[C@H](NC(C)=O)CC4)c[nH]c13)OCO2 [Example 161, trans-4-[5-(2-Methoxy-ethoxy)-benzo[1,3]dioxol-4-yl]-5H-pyrrolo[3,2-d]pyrimidine-7-carboxylic acid (4-acetylamino-cyclohexyl)-amide]"
5,11,"COCCOc1ccc2c(c1-c1ncnc3c(C(=O)N[C@H]4CC[C@H](NC(=O)C5CC5)CC4)c[nH]c13)OCO2 [Example 162, trans-4-[5-(2-Methoxy-ethoxy)-benzo[1,3]dioxol-4-yl]-5H-pyrrolo[3,2-d]pyrimidine-7-carboxylic acid (4-(cyclopropanecarbonyl-amino)-cyclohexyl]-amide]"
6,7.76,"COCCOc1ccc2c(c1-c1ncnc3c(C(=O)N[C@H]4CC[C@@H](NC(C)=O)CC4)c[nH]c13)OCO2 [Example 164, cis-4-[5-(2-Methoxy-ethoxy)-benzo[1,3]dioxol-4-yl]-5H-pyrrolo[3,2-d]pyrimidine-7-carboxylic acid (4-acetylamino-cyclohexyl)-amide]"
7,5.89,"COCCOc1ccc2c(c1-c1ncnc3c(C(=O)N[C@H]4CC[C@@H](NC(=O)C5CC5)CC4)c[nH]c13)OCO2 [Example 165, cis-4-[5-(2-Methoxy-ethoxy)-benzo[1,3]dioxol-4-yl]-5H-pyrrolo[3,2-d]pyrimidine-7-carboxylic acid [4-(cyclopropanecarbonyl-amino)-cyclohexyl]-amide]"
8,10.2,"COCCOc1ccc2c(c1-c1ncnc3c(C(=O)N[C@H]4CC[C@@H](NC(=O)COC)CC4)c[nH]c13)OCO2 [Example 166, cis-4-[5-(2-Methoxy-ethoxy)-benzo[1,3]dioxol-4-yl]-5H-pyrrolo[3,2-d]pyrimidine-7-carboxylic acid [4-(2-methoxy-acetylamino)-cyclohexyl]-amide]"
9,5.25,"CCOC(=O)N[C@H]1CC[C@@H](NC(=O)c2c[nH]c3c(-c4c(OCCOC)ccc5c4OCO5)ncnc23)CC1 [Example 167, cis-[4-({4-[5-(2-Methoxy-ethoxy)-benzo[1,3]dioxol-4-yl]-5H-pyrrolo[3,2-d]pyrimidine-7-carbonyl}-amino)-cyclohexyl]-carbamic acid ethyl ester]"
10,7.94,"COCCOc1ccc2c(c1-c1ncnc3c(C(=O)NC4CCN(C(C)=O)CC4)c[nH]c13)OCO2 [Example 168, 4-[5-(2-Methoxy-ethoxy)-benzo[1,3]dioxol-4-yl]-5H-pyrrolo[3,2-d]pyrimidine-7-carboxylic acid (1-acetyl-piperidin-4-yl)-amide]"
11,1.74,"COCCOc1ccc2c(c1-c1ncnc3c(C(=O)NC4CCN(C(=O)C5CC5)CC4)c[nH]c13)OCO2 [Example 169, 4-[5-(2-Methoxy-ethoxy)-benzo[1,3]dioxol-4-yl]-5H-pyrrolo[3,2-d]pyrimidine-7-carboxylic acid (1-cyclopropanecarbonyl-piperidin-4-yl)-amide]"
12,13.8,"COCCOc1ccc2c(c1-c1ncnc3c(C(=O)NC4CCN(C(=O)COC)CC4)c[nH]c13)OCO2 [Example 170, 4-[5-(2-Methoxy-ethoxy)-benzo[1,3]dioxol-4-yl]-5H-pyrrolo[3,2-d]pyrimidine-7-carboxylic acid [1-(2-methoxy-acetyl)piperidin-4-yl]-amide]"
13,0.302,"O=C(NC1CCN(C(=O)CO)CC1)c1c[nH]c2c(-c3c(OCC4CC4)ccc4c3OCO4)ncnc12 [Example 171, 4-(5-Cyclopropylmethoxy-benzo[1,3]dioxol-4-yl)-5H-pyrrolo[3,2-d]pyrimidine-7-carboxylic acid [1-(2-hydroxy-ethanoyl)-piperidin-4-yl]amide]"
14,0.112,O=C(CO)N[C@H]1CC[C@H](NC(=O)c2c[nH]c3c(-c4c(OCC5CC5)ccc5c4OCO5)ncnc23)CC1 [Example 172]
15,0.186,C[C@H](O)C(=O)N[C@H]1CC[C@H](NC(=O)c2c[nH]c3c(-c4c(OCC5CC5)ccc5c4OCO5)ncnc23)CC1 [Example 173]
16,0.389,O=C(CO)N[C@H]1CC[C@@H](NC(=O)c2c[nH]c3c(-c4c(OCC5CC5)ccc5c4OCO5)ncnc23)CC1 [Example 174]
17,0.245,C[C@H](O)C(=O)N[C@H]1CC[C@@H](NC(=O)c2c[nH]c3c(-c4c(OCC5CC5)ccc5c4OCO5)ncnc23)CC1 [Example 175]
18,0.245,"C[C@H](O)C(=O)N1CCC(NC(=O)c2c[nH]c3c(-c4c(OCC5CC5)ccc5c4OCO5)ncnc23)CC1 [Example 176, 4-(5-Cyclopropylmethoxy-benzo[1,3]dioxol-4-yl)-5H-pyrrolo[3,2-d]pyrimidine-7-carboxylic acid [1-((S)-2-hydroxy-propanoyl)-piperidin-4-yl]amide]"
19,0.123,"O=C(N[C@H]1CC[C@H](NC(=O)C2(O)CC2)CC1)c1c[nH]c2c(-c3c(OCC4CC4)ccc4c3OCO4)ncnc12 [Example 177, trans-4-(5-Cyclopropylmethoxy-benzo[1,3]dioxol-4-yl)-5H-pyrrolo[3,2-d]pyrimidine-7-carboxylic acid {4-[(1-hydroxy-cyclopropanecarbonyl)-amino]-cyclohexyl}-amide]"
20,0.229,"O=C(N[C@H]1CC[C@@H](NC(=O)C2(O)CC2)CC1)c1c[nH]c2c(-c3c(OCC4CC4)ccc4c3OCO4)ncnc12 [Example 178, cis-4-(5-Cyclopropylmethoxy-benzo[1,3]dioxol-4-yl)-5H-pyrrolo[3,2-d]pyrimidine-7-carboxylic acid {4-[(1-hydroxy-cyclopropanecarbonyl)-amino]-cyclohexyl}-amide]"
21,0.182,"O=C(NC1CCN(C(=O)C2(O)CC2)CC1)c1c[nH]c2c(-c3c(OCC4CC4)ccc4c3OCO4)ncnc12 [Example 179, 4-(5-Cyclopropylmethoxy-benzo[1,3]dioxol-4-yl)-5H-pyrrolo[3,2-d]pyrimidine-7-carboxylic acid {1-[1-(1-hydroxy-cyclopropyl)methanoyl]-piperidin-4-yl}-amide]"
22,1.2,"O=C(N[C@@H]1CCN(C(=O)CO)C1)c1c[nH]c2c(-c3c(OCC4CC4)ccc4c3OCO4)ncnc12 [Example 180, 4-(5-Cyclopropylmethoxy-benzo[1,3]dioxol-4-yl)-5H-pyrrolo[3,2-d]pyrimidine-7-carboxylic acid [(R)-1-(2-hydroxy-ethanoyl)-pyrrolidin-3-yl]amide]"
